Measured values as given in patent publication US4073938A, “19,20-Bis-nor-prostenoic acids as hypolipemic compounds” (Istituto Biochimico Italiano di Loredana Lorenzini S.a.s., priority 1974, dated 1978).
Where a name gives a salt, the structure may show the parent alone.

Tested on: smooth musculature (trachea of guinea-pig, fundal end stomach of rat, uterus of rat, portal vein of rat)
Test: General pharmacology: prostaglandino-similar activity on smooth muscle preparations
Details: 100 μg/ml
Description: The compound C83 has been tested pharmacologically in order to show a probable prostaglandino-similar activity.
The compound C83 has been studied on the above parameters:
1. Trachea of guinea-pig.
2. Strips of fundal end stomach of rat.
5. Cardiovascular effects.
This compound has been tested at the concentration of 100 μg/ml in all preparations above mentioned.

CCCCCCC1CCC(O)C1CCCCCCC(=O)O (stereo not shown) [Compound C83, 9-hydroxy-19,20-bis-nor-prostanoic acid sodium salt]
action on smooth musculature: clear prolonged action on muscle on the different kinds of smooth musculature
